Experiment [1] deals with T1, UCP1 (Rattus norvegicus, UniProt P04633).
T1 construct: made in house; host or cells: Saccharomyces cerevisiae W303, vector pYeDP-UCP (gal-cyc promoter); isolated mitochondria
T1 sequence (P04633 1-307): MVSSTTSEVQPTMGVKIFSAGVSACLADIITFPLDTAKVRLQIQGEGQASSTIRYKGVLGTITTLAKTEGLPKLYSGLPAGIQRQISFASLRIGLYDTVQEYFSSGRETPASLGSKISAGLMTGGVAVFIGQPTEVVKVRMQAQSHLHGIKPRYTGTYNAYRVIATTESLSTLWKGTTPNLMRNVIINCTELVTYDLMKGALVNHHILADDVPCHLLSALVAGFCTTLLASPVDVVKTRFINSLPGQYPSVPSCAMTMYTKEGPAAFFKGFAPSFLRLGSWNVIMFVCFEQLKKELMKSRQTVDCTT
Kind of experiment: Respiration rate from oxygen consumption (oxygen electrode), mitochondria that express UCP1. Type of experiment: biochemical. The settings on record: UCP1 mitochondria of S. cerevisiae; GDP 3 mM, palmitate 48 μM, FCCP 10 μM (uncoupled respiration); basal 218. How it is done:
(§1) To isolate the mitochondria required for the subsequent experiments, yeasts of the strain Saccharomyces cerevisiae W303 that express UCP1 were inoculated into SP growth medium (0.67% nitrogen substrate, 0.1% casamino acids, 20 mg/ml tryptophan, 40 mg/ml adenine, 0.1% phosphate, 0.12% ammonium sulphate, 0.1% glucose, 2% lactic acid, pH 4.5) 36 hours before extraction of the mitochondria; 12 or 14 hours before extraction they were diluted in SG medium (0.67% nitrogen substrate, 0.1% casamino acids, 20 mg/ml tryptophan, 40 mg/ml adenine, 2% galactose pH 4.5) adjusting the optical density at 600 nm to between 0.3-0.4 absorbance units [Arechaga I, Raimbault S. et al., (1993) Cysteine residues are not essential for uncoupling protein function. Biochem. J. 296. 693-700].
The mitochondria were prepared following a procedure based on that of Guerin et al., [Guerin B, Labbe P. Somlo M (1979) Preparation of yeast mitochondria (Saccharomyces cerevisiae) with good P/O and respiratory ratios Methods Enzymol. 55: 149-159]. The protoplasts are prepared by enzymatic digestion of the cell wall with cytohelicase and after their homogenization mitochondria are isolated by differential centrifugation [Arechaga I., Raimbault S. et al., (1993) Cysteine residues are not essential for uncoupling protein function. Biochem. J. 296. 693-700]. […]

The target of experiment [2] is T1, UCP1. Kind of experiment: Respiration rate by monitoring NADH fluorescence (NADH consumption), mitochondria that express UCP1. The format is biochemical. The settings on record: GDP 3 mM, palmitate 48 μM. How it is done:
as §1, with “693-700]. […]” for “693-700].”
The second method, which is the object of the present invention, is based on determining the respiration rate by measuring the consumption of NAD(P)H. All the assays were performed on a 96-well micro-titre standardized plate (Nunc., Denmark). […] Fluorescence measurements were done using a POLAR star Galaxy plate reader (BMG Laboratories OmbH, Offenburg, Germany). […] Changes in the fluorescence signal were determined every 30 seconds in each well with an average of 6-9 readings for each measurement. […] From these values, fluorescence values for the suspension of mitochondria in the absence of NADH (blank) were subtracted. […]

A further experiment has as its system Control mitochondria. Kind of experiment: Respiration rate from oxygen consumption (oxygen electrode), Control mitochondria. The format is biochemical, Saccharomyces cerevisiae. The settings on record: CONTROL mitochondria of S. cerevisiae; GDP 3 mM, palmitate 48 μM, FCCP 10 μM (uncoupled respiration); basal 144.

From patent publication US20020177543A1, “Method for determining the activity of uncoupling proteins (UCPs) by monitoring NAD(P)H consumption” (priority 2000, published 2002) come the findings set out here.

Turning to `Nc1nc2c(ncn2[C@@H]2O[C@H](COP(=O)(O)OP(=O)(O)O)[C@@H](O)[C@H]2O)c(=O)[nH]1` [GDP], the Oxygen consumption at UCP1 [1] was 149 nmoles of oxygen consumed per minute and per mg of protein; in the experiment with Control mitochondria, 155 nmoles of oxygen consumed per minute and per mg of protein. In addition, the “Change in rate of NADH consumption compared to basal levels (in words)” value at UCP1 [2] is “reduced compared to basal levels”.
